The values below come from patent publication US7381722B2, “Tetracyclic amino and carboxamido compounds and methods of use thereof” (Inotek Pharmaceuticals Corporation, priority 2005, dated 2008).

In this assay the target is T1, PARS (Mus musculus, UniProt P11103).
T1 construct: endogenous in cells; host or cells: Raw murine macrophages
T1 sequence (P11103 whole entry): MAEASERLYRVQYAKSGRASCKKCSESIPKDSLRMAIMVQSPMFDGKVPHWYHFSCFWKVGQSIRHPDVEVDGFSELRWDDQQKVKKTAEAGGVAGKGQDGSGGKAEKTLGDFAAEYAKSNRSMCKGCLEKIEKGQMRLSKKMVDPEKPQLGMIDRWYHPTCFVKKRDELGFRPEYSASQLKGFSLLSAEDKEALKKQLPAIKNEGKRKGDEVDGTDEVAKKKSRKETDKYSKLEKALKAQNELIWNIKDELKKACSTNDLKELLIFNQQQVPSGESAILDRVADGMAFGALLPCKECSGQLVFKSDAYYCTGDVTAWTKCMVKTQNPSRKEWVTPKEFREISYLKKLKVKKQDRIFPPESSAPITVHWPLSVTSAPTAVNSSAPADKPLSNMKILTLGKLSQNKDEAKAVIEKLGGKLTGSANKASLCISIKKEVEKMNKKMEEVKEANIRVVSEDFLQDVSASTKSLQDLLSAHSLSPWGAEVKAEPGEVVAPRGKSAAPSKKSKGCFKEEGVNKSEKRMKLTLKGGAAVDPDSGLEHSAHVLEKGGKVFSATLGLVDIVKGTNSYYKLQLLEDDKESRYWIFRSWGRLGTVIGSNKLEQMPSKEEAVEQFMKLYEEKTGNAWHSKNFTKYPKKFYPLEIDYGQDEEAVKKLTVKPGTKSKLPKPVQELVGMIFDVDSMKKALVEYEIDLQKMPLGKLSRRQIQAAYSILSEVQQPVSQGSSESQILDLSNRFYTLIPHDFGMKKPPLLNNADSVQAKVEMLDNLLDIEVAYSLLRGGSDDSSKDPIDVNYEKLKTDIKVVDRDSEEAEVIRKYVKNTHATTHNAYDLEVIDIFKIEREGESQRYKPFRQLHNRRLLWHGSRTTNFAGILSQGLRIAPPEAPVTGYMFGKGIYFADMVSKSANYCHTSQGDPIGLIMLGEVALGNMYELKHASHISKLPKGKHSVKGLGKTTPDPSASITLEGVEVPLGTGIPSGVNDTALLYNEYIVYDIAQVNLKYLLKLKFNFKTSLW
Kind of assay: Cell protection assay: PARS activity in peroxynitrite-treated Raw murine macrophages. The format is cell-based. To be noted: compound 15 min before peroxynitrite (750 μM) for 15 min, PARS activity by 3H-NAD incorporation, EC50 from dose-response curve. The protocol: Raw murine macrophages were treated with an illustrative Tetracyclic Amino Compound or Tetracyclic Carboxamido Compound for 15 minutes prior to the addition of peroxynitrite (750 μM) for a further 15 minutes. For the measurement of PARS activity, the media were removed and replaced with 0.5 ml HEPES (pH 7.5) containing 0.01% digitonin and ^3H-NAD (0.5 μCi ml^−1, final concentration of NAD^+ in buffer is 20 nM/L) for 20 minutes. The cells were then scraped from the wells and placed in Eppendorf tubes containing 200 μl of 50% (w/v) ice-cold trichloroacetic acid (TCA). The tubes were then placed at 4° C. After 4 hr the tubes were centrifuged at 1800 g for 10 minutes and the supernatant removed. The pellets were washed twice with 500 μl ice-cold 5% TCA. The pellets were solubilized in 250 μl NaOH (0.1 M) containing 2% SDS overnight at 37° C. and the PARS activity was then determined by measuring the radioactivity incorporated using a Wallac scintillation counter. The solubilized protein (250 μl) was mixed with 5 ml of scintillant (ScintiSafe Plus, Fisher Scientific) before being counted for 10 minutes. The EC50 value was calculated from a dose-response curve.
On to `O=C(NCCN1CCOCC1)c1cccc2c1Cc1c-2[nH]c(=O)c2ccccc12` [Compound 16a], for which the EC50 is > 1.5 µM.

For `CN(C)CCCNC(=O)c1ccc2c(c1)Cc1c-2[nH]c(=O)c2ccccc12` [Compound 13b], a half-maximal effect (EC50) was put at 0.9 µM.

As to `CN(C)CCNC(=O)c1cccc2c1Cc1c-2[nH]c(=O)c2ccccc12` [Compound 15a], the EC50 was > 1.5 µM.

Regarding `O=C(NCCCN1CCOCC1)c1cccc2c1Cc1c-2[nH]c(=O)c2ccccc12` [Compound 16b], the EC50 is > 1.5 µM.

On to `O=C(NCCCN1CCOCC1)c1ccc2c(c1)Cc1c-2[nH]c(=O)c2ccccc12` [Compound 14b], for which the EC50 was found to be 1.1 µM.

As for `O=C(NCCN1CCOCC1)c1ccc2c(c1)Cc1c-2[nH]c(=O)c2ccccc12` [Compound 14a], the concentration giving a half-maximal response (EC50) amounted to 1.1 µM.

`CN(C)CCCNC(=O)c1cccc2c1Cc1c-2[nH]c(=O)c2ccccc12` [Compound 15b]: the EC50 was > 1.5 µM.
